In a melting point compilation (Tetko et al.; mined from patent text by program, amines drawn as free bases though some values may be those of a salt):

| SMILES | melting point |
| --- | --- |
| CCOC(=O)C(=O)Nc1nc2ccccc2s1 | 185 to 186 °C |
| O=C1OC2CCC1CC2 | 125 to 126 °C |
| CC(C)(C)c1ccc(C(=O)N[C@H]2CC[C@H](CCN3CCN(c4nccc5c4OCC5)CC3)CC2)cc1 | 183 °C |
| COc1ccc2c(c1)c(Cc1cc(=O)n(-c3ccc(C(F)(F)F)cc3)[nH]1)c(C)n2C(=O)c1ccc(C#N)cc1 | 92 to 94 °C |
| CCOCCc1cc(OC)c(-c2ccc(C[C@H](NC(=O)c3c(F)cccc3F)C(=O)O)cc2)c(OC)c1 | 63 to 70 °C |
| O=C(O)c1ccc(CCCOCCCCCCNCC(O)c2ccc(O)c(CO)c2)cc1 (configuration not stated) | 50 to 58 °C |
| CC(C)Cn1c(=O)n(C)c(=O)c2c(SCCCC#N)n(Cc3cccc4ccccc34)cc21 | 127 to 128 °C |
| CC1CCCC(C)N1C(=O)CSC#N (configuration not stated) | 81 to 82 °C |
| COc1ccc(NC(=O)c2ccc(F)c(F)c2)cc1NCc1cccc(C(=O)O)c1 | 218 to 221 °C |
| ClCSc1ccccc1Br | 28 to 30 °C |
| COCOc1cc(OC)ccc1Br | 40 to 42 °C |
| CCOC(=O)COc1cc(O)c(C(=O)CN2Cc3cc(C(N)=S)ccc3C2=O)cc1OCC(=O)OCC | 142 to 143 °C |
| C=Cc1cnc2c(NC(=O)c3c(Cl)cccc3Cl)cccc2c1Cn1ccnc1 | 189 to 191 °C |
| CSC[C@H](NC(C)=O)C(=O)N(C)N | 156 to 157 °C |
| CN(C(=O)CN1C(=O)C(NC(=O)Nc2cccc(C#N)c2)N=C(CN2CCSCC2)c2ccccc21)c1ccccc1 (configuration not stated) | 165 °C |
| Cc1nc(N)nc(C)c1Br | 183 to 185 °C |
| CC(N)CSc1c[nH]c2ccccc12 (configuration not stated) | 110 to 112 °C |
| CCCCC[C@@H](CNC(=O)Nc1c(OCC)ccc2c1CCC2)c1cccc2c1OCO2 | 108 to 109 °C |
| Fc1cc(CC2(Cc3ccncc3)c3cccnc3-c3sccc32)ccn1 (configuration not stated) | 192 to 193 °C |
| CC(=Nc1ccccc1)NC(=S)NCc1cccnc1 | 143 to 144 °C |
| O=C1NC(=O)C(N(Cc2ccc(Br)cc2)c2ccc(CCNCC(O)COc3ccccc3)cc2)S1 (configuration not stated) | 52 to 54 °C |
| CCCN=C(N)Nc1ccnc(CCCCc2c[nH]cn2)n1 | 172 to 174 °C |
| Cn1cc(-c2cc3cccnc3[nH]2)c2cc(C(=O)O)ccc21 | > 300 °C |
| CCOC(=O)C1=C(N)N=C(OCC)C(C(=O)OCC)C1c1ccccc1 (configuration not stated) | 119 °C |

| SMILES | melting point |
| --- | --- |
| COc1cccc(CO)c1C(O)c1ccccn1 (configuration not stated) | 102 to 104 °C |
| Nc1ccc2c(c1N)Cc1ccccc1-2 | 240 to 243 °C |
| CCc1nc2c(C)cc(C)nc2n1Cc1ccc(C(=C(Br)C(=O)O)c2ccccc2)cc1 | 125 to 129 °C |
| CCc1ccc(S(=O)(=O)Nc2cccnc2Nc2ccccc2)cc1 | 138 to 139 °C |
| COc1cccc(CN=Cc2cccc(O)c2)c1 | 103 °C |
| COc1cccc2c1OCN(CCc1ccc(Cl)cc1)C2 | 87 to 88 °C |
| COC(=O)Cc1ccccc1NS(C)(=O)=O | 73 to 75 °C |
| O=C(Nc1cn[nH]c1-c1ccc(F)cc1)c1c(F)cccc1F | 112 °C |
| Cc1cc2c(-c3ccccc3F)nc(=O)n(C)c2s1 | 119 to 121 °C |
| CCOc1nc(C(F)(F)F)cc(=O)n1-c1cc(OC(C)C)c(Cl)cc1F | 101 to 103 °C |
| CCC(=O)NCCc1c(-c2ccccc2)nn2ccc3occc3c12 | 161 to 163 °C |
| COc1ccc(-c2[nH]nc3c2C(=O)c2c(NC(=O)CN4CCC(C(N)=O)CC4)cccc2-3)cc1 | > 300 °C |
| C#CCOC(=O)C=Cc1csc(Cl)c1Cl | 84 to 86 °C |
| COC(=O)C1Cc2c([nH]c3ccccc23)C(c2ccc3c(c2)OCO3)N1C(=O)CCl (configuration not stated) | 207 to 208 °C |
| N[C@@]1(C(=O)O)C[C@H](Oc2ccc(Cl)cc2Cl)[C@H]2[C@H](C(=O)O)[C@H]21 (relative stereo) | > 250 °C |
| c1cc(CCCCn2ccnc2)cc(OCc2ccc3oc(-c4cccs4)nc3c2)c1 | 97 to 98 °C |
| CC1C(Cl)(Cl)C1(C)C(=O)C(N)=O (configuration not stated) | 87 to 89 °C |
| COc1cc(-c2cc(Br)cs2)cc2oc(=O)c(C)c(C)c12 | 131 to 134 °C |
| COc1ccc(Cl)c(S(=O)(=O)NC(=O)c2nc3c(Cl)cc(C(F)(F)F)cn3c2C)c1 | 222 to 223 °C |
| CC(C)(C)C(=O)Oc1ccc(CCNc2nc(N)n3nc(-c4ccco4)nc3n2)cc1 | 208 to 210 °C |
| Cc1cc(O)c(S(=O)Cc2ccc(Cl)cc2)c(=O)o1 (configuration not stated) | 150 to 151 °C |
| CCN(CC)CCOc1nc2ccccc2n(-c2ccc(Cl)cc2)c1=O | 165 to 167 °C |
| Nc1nc2ccc(Cc3ccc(F)cc3)cc2s1 | 162 to 164 °C |
| CCCCN(C(=O)C(C)C)c1nnc(C)s1 | 54 to 57 °C |

| SMILES | melting point |
| --- | --- |
| N#CCCN1CCC(c2[nH]cc3cc(F)ccc23)CC1 | 100 to 101 °C |
| O=C(CC1CC1)N[C@H]1CC[C@H](CCN2CCC(c3cccc4c3CCO4)CC2)CC1 | 189 °C |
| C[C@H](NC(=O)C[C@](O)(CC(C)(C)O)c1ccccc1)c1ccc(Br)cc1 | 150 to 152 °C |
| COc1ccc(-c2nnc(OC)nc2-c2ccc(OC)cc2)cc1 | 135 to 137 °C |
| CCN1c2ncc(COc3cccc(C(N)=O)c3)cc2C(=O)N(C)c2ccc(Cl)nc21 | 96 to 98 °C |
| CN(C)CCNS(=O)(=O)c1cccc(NC(=O)c2cnn3c(C(F)F)cc(-c4ccc(C(F)(F)F)cc4)nc23)c1 | 184 °C |
| CC(C)Cn1c(CNC(=O)OC(C)(C)C)c(-c2ccccc2)c2cc(-c3nc(N)cs3)ccc2c1=O | 195 to 196 °C |
| Cc1[nH]ncc1C(=O)Nc1ccc(OCC(C)(C)C)c(C#N)c1 | 133 to 134 °C |
| COc1ccccc1C1(NCCC(=O)OC(C)(C)C)C(=O)Nc2ccc(Cl)cc21 (configuration not stated) | 170 °C |
| O=C(c1cc2cc(OCCNC[C@H](O)COc3ccccc3Cl)ccc2o1)N1CCCC1 | 89 to 90 °C |
| COC(=O)c1cc2cc(OC)c(OC)cc2c(C)c1C(=O)OC | 142 to 144 °C |
| Cc1cnc(CCc2ccccc2)n2c1c(CCCl)c1ccccc12 | 144 to 145 °C |
| NS(=O)(=O)c1ccccc1CSC1=NCCS1 | 123 to 125 °C |
| Cc1nc(C)c(Cl)c(NCc2nccc(SCCCSCCn3c([N+](=O)[O-])cnc3C)c2C)n1 | 145 to 147 °C |
| CCOP(=S)(CNSCNC(=O)ON=C(C)SC)OCC | 72 to 73 °C |
| COc1ccc(-c2ccc(=O)n(Cc3nc4cc(F)ccc4o3)c2)cc1 | 115 °C |
| N#Cc1cnc2cnc(F)cc2c1Nc1ccc(Oc2ccccc2)cc1 | 211 to 213 °C |
| CN(C)c1cccc2c1C(=O)N(C1(C(N)=O)CCCCC1)C2=O | 166 to 169 °C |
| CCOC(=O)CCC(=O)c1ccc(CCN(CC=Cc2ccc(Cl)cc2)S(=O)(=O)c2ccc(Cl)cc2)cc1 | 100 to 101 °C |
| Brc1ccc(C=Cc2csc3ccccc23)s1 | 71.5 to 73 °C |
| CCOC(=O)c1ncn2cc(Br)sc12 | 171 to 172 °C |
| CCCN1C(=O)C2(c3ccccc3)CC(c3ccc([N+](=O)[O-])cc3)(C2)C1=O | 144 to 146 °C |
| CCC(CC)c1nnc(S)n(N)c1=O | 162 to 164 °C |
| CCOP(=O)(CNC(CCCc1ccccc1)c1cc(C(C)(C)C)c(O)c(C(C)(C)C)c1)OCC (configuration not stated) | 93 to 94 °C |
